Measured values reported in ChEMBL document CHEMBL5584230, “Exploring fluorine-substituted piperidines as potential therapeutics for diabetes mellitus and Alzheimer's diseases” (Eur J Med Chem, 2024).
pIC50, pKi: −log10 of the molar value. Several values for one entry are separate records, joined by “and”; a condition that tells them apart may be missing. Equal entries are not always repeated. Activity calls are given as the source filed them. No cut-off for these calls is given here.

How the values were obtained:
[1] = Antioxidant activity assessed as DPPH radical scavenging activity incubated for 30 mins; format: functional
[2] = Antioxidant activity assessed as ABTS radical scavenging activity; format: functional
[3] = Inhibition of alpha-glucosidase (unknown origin); set-up: species or system Homo sapiens
Acetylcholinesterase [4] = target: T1, Acetylcholinesterase (Homo sapiens, UniProt P22303); assay: Inhibition of AChE (unknown origin)
T1 sequence (P22303 whole entry): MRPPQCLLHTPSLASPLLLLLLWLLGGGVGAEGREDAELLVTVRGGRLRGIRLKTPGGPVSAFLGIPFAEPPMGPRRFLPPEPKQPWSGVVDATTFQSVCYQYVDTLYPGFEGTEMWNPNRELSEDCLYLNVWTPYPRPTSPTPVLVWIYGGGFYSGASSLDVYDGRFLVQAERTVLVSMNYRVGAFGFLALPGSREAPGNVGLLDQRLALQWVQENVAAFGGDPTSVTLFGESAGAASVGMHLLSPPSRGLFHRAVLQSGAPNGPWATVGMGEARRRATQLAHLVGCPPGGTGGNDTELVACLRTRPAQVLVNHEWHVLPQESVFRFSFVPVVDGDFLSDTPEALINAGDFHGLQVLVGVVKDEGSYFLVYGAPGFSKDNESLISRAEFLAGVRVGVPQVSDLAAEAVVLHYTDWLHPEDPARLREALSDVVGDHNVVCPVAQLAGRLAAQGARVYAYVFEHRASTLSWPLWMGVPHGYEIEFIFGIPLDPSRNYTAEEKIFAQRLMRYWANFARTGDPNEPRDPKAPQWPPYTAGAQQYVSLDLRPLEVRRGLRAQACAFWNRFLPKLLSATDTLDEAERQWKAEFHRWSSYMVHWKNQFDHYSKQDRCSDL

Cholinesterase = Cholinesterase (Homo sapiens, UniProt P06276); assay: Inhibition of BchE (unknown origin)
Chain of Cholinesterase (P06276 whole entry): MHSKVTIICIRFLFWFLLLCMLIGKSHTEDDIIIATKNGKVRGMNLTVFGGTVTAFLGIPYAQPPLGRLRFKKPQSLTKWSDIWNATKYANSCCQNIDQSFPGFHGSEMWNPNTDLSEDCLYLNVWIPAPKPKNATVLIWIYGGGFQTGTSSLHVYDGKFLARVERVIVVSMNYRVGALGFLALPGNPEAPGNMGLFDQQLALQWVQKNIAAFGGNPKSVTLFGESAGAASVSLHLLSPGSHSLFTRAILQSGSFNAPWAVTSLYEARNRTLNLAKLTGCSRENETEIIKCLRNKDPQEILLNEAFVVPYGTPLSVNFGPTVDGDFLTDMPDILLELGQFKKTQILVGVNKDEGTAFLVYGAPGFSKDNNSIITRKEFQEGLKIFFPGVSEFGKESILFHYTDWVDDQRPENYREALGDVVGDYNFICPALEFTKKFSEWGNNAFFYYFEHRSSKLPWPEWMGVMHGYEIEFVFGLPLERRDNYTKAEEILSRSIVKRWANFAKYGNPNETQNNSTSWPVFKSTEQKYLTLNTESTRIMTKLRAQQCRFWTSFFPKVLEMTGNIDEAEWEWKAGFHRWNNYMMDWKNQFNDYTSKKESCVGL

[5] = Acute toxicity in BALB/c mouse upto 100 mg/kg, ip administered for 72 hrs and measured after 14 days; format: organism-based; settings: in vivo, 408 h, time 17 day
Rattus norvegicus [6] = assay: Anti-diabetic activity in STZ-induced diabetic Sprague-Dawley rat model assessed as change in blood glucose level at 9 mg/kg, ip measured for 28 days; format: functional, organism-based; settings: time 28.0 day
Rattus norvegicus [7] = assay: Anti-diabetic activity in STZ-induced diabetic Sprague-Dawley rat model assessed as reduction in blood glucose level at 9 mg/kg, ip measured at day 1 (reference value: 494.14 +/- 4.15 mg/dl); format: functional; settings: time 1 day
Rattus norvegicus [8] = assay: Anti-diabetic activity in STZ-induced diabetic Sprague-Dawley rat model assessed as reduction in blood glucose level at 9 mg/kg, ip measured at day 7 (reference value: 490.69 +/- 3.98 mg/dl); format: functional; settings: time 7 day
Rattus norvegicus [9] = assay: Anti-diabetic activity in STZ-induced diabetic Sprague-Dawley rat model assessed as reduction in blood glucose level at 9 mg/kg, ip measured at day 14 (reference value: 489.44 +/- 4.18 mg/dl); format: functional; settings: time 14 day
Rattus norvegicus [10] = assay: Anti-diabetic activity in STZ-induced diabetic Sprague-Dawley rat model assessed as reduction in blood glucose level at 9 mg/kg, ip measured at day 21 (reference value: 503.09 +/- 4.15 mg/dl); format: functional; settings: time 21 day
Rattus norvegicus [11] = assay: Anti-diabetic activity in STZ-induced diabetic Sprague-Dawley rat model assessed as reduction in blood glucose level at 9 mg/kg, ip measured at day 28 (reference value: 501.71 +/- 3.91 mg/dl); format: functional; settings: time 28 day
Rattus norvegicus [12] = assay: Anti-diabetic activity in STZ-induced diabetic Sprague-Dawley rat model assessed as increase in body weight at 9 mg/kg, ip measured at day 1; format: functional, organism-based; settings: time 1.0 day
Rattus norvegicus [13] = assay: Anti-diabetic activity in STZ-induced diabetic Sprague-Dawley rat model assessed as increase in body weight at 9 mg/kg, ip measured at day 14; format: functional, organism-based; settings: time 14.0 day
Rattus norvegicus [14] = assay: Anti-diabetic activity in STZ-induced diabetic Sprague-Dawley rat model assessed as increase in body weight at 9 mg/kg, ip measured at day 28; format: functional, organism-based; settings: time 28.0 day
Rattus norvegicus [15] = assay: Anti-diabetic activity in STZ-induced diabetic Sprague-Dawley rat model assessed as reduction in cholesterol level in plasma at 9 mg/kg, ip (reference value: 218 +/- 4.41 mg/dl); format: functional
Rattus norvegicus [16] = assay: Anti-diabetic activity in STZ-induced diabetic Sprague-Dawley rat model assessed as reduction in TG level in plasma at 9 mg/kg, ip (reference value: 226.19 +/- 3.97 mg/dl); format: functional
Rattus norvegicus [17] = assay: Anti-diabetic activity in STZ-induced diabetic Sprague-Dawley rat model assessed as reduction in LDL level in plasma at 9 mg/kg, ip (reference value: 138.19 +/- 3.67 mg/dl); format: functional
Rattus norvegicus [18] = assay: Anti-diabetic activity in STZ-induced diabetic Sprague-Dawley rat model assessed as reduction in HDL level in plasma at 9 mg/kg, ip (reference value: 21.09 +/- 1.71 mg/dl); format: functional
Acetylcholinesterase [19] = target: T1, Acetylcholinesterase; assay: Mixed type inhibition of AChE (unknown origin) using […] assessed as effect on Vmax and Km at 1.95 to 7.8 uM by Lineweaver-Burk plot analysis; settings: dose 1.95-7.8 µM
Acetylcholinesterase [20] = target: T1, Acetylcholinesterase; assay: Inhibition of AChE (unknown origin) using […] assessed as inhibition constant by Lineweaver-Burk plot analysis
Homo sapiens = organism: Homo sapiens; assay: Competitive inhibition of alpha-glucosidase (unknown origin) […] using p-nitrophenyl glucopyranoside as substrate assessed as increase in Km with constant Vmax upto 180 uM using varying concentrations of substrate measured for 20 mins by Lineweaver-Burk plot analysis
[21] = Inhibition of alpha-glucosidase (unknown origin) using p-nitrophenyl glucopyranoside as substrate assessed as inhibition constant by Lineweaver-Burk plot analysis; set-up: species or system Homo sapiens

| Structure (SMILES) | pIC50 [1] | pIC50 [2] | pIC50 [3] | pIC50 (Acetylcholinesterase [4]) | pIC50 (Cholinesterase) | Activity [5] | Activity (Rattus norvegicus [6]) | Activity (Rattus norvegicus [7]) [mg/dL] | Activity (Rattus norvegicus [8]) [mg/dL] | Activity (Rattus norvegicus [9]) [mg/dL] | Activity (Rattus norvegicus [10]) [mg/dL] | Activity (Rattus norvegicus [11]) [mg/dL] | Activity (Rattus norvegicus [12]) | Activity (Rattus norvegicus [13]) | Activity (Rattus norvegicus [14]) | Activity (Rattus norvegicus [15]) [mg/dL] | Activity (Rattus norvegicus [16]) [mg/dL] | Activity (Rattus norvegicus [17]) [mg/dL] | Activity (Rattus norvegicus [18]) [mg/dL] | further results |
| --- | --- | --- | --- | --- | --- | --- | --- | --- | --- | --- | --- | --- | --- | --- | --- | --- | --- | --- | --- | --- |
| CCOC(=O)C1=C(Nc2cccc(F)c2)CC(c2ccc(F)cc2)N(c2cccc(F)c2)C1c1ccc(F)cc1 (stereo not drawn) | 5.96 | 6.28 | 6.44 | 5.85 | 5.70 | – | – | – | – | – | – | – | – | – | – | – | – | – | – | – |
| CCOC(=O)C1=C(Nc2ccc(F)cc2)CC(c2ccc(F)cc2)N(c2ccc(F)cc2)C1c1ccc(F)cc1 (stereo not drawn) | 6.16 | 7.66 and 7.70 | 6.60 | 6.11 | 6.13 | Non-Toxic | Active | 501.12 | 419.93 | 341.51 | 256.71 | 159.45 | Active | Active | Active | 91.16 | 97.65 | 59.16 | 27.73 | inhibition (Acetylcholinesterase [19]): Active; pKi (Acetylcholinesterase [20]): 5.69 |
| C[C@H]1O[C@H](O[C@H]2[C@H](O)[C@@H](O)[C@@H](O[C@H]3[C@H](O)[C@@H](O)C(O)O[C@@H]3CO)O[C@@H]2CO)[C@H](O)[C@@H](O)[C@@H]1N[C@H]1C=C(CO)[C@@H](O)[C@H](O)[C@H]1O (stereo partly drawn) [ACARBOSE] | – | – | 4.54 | – | – | – | – | – | – | – | – | – | – | – | – | – | – | – | – | – |
| CCOC(=O)C1=C(Nc2cccc(F)c2)CC(c2ccc(C(F)(F)F)cc2)N(c2cccc(F)c2)C1c1ccc(C(F)(F)F)cc1 (stereo not drawn) | 6.09 | 6.20 | 6.66 | 5.92 | 5.90 | Non-Toxic | Active | 495.39 | 422.69 | 334.29 | 240.19 | 152.61 | Active | Active | Active | 78.67 | 93.71 | 51.22 | 31.06 | – |
| Cc1c(C)c2c(c(C)c1O)CCC(C)(C(=O)O)O2 (stereo not drawn) [TROLOX] | – | 7.55 | – | – | – | – | – | – | – | – | – | – | – | – | – | – | – | – | – | – |
| CCOC(=O)C1=C(Nc2ccccc2)CC(c2ccc(F)cc2)N(c2ccccc2)C1c1ccc(F)cc1 (stereo not drawn) | 5.98 | 6.67 | 6.33 | 5.87 | 5.89 | – | – | – | – | – | – | – | – | – | – | – | – | – | – | – |
| CCOC(=O)C1=C(Nc2ccc(F)cc2)CC(c2ccc(Cl)cc2)N(c2ccc(F)cc2)C1c1ccc(Cl)cc1 (stereo not drawn) | 5.88 | 6.34 | 6.54 | 6.04 | 5.99 | Non-Toxic | Active | 498.7 | 427.82 | 349.78 | 244.27 | 167.81 | Active | Active | Active | 87.96 | 104.2 | 61.39 | 28.09 | – |
| CCOC(=O)C1=C(Nc2ccc(F)cc2)CC(c2cccc(F)c2)N(c2ccc(F)cc2)C1c1cccc(F)c1 (stereo not drawn) | 6.02 | 6.25 | 6.34 | 5.95 | 5.88 | – | – | – | – | – | – | – | – | – | – | – | – | – | – | – |
| CCOC(=O)C1=C(Nc2ccc(F)cc2)CC(c2ccc(C(F)(F)F)cc2)N(c2ccc(F)cc2)C1c1ccc(C(F)(F)F)cc1 (stereo not drawn) | 6.20 | 6.78 | 6.75 | 6.03 | 5.99 | Non-Toxic | Active | 497.98 | 417.55 | 320.81 | 231.77 | 138.56 | Active | Active | Active | 75.05 | 91.96 | 47.51 | 33.51 | inhibition (Homo sapiens): Active; pKi [21]: 3.93 |
| O=C1O[C@H]([C@@H](O)CO)C(O)=C1O [ASCORBIC ACID] | 6.19 | – | – | – | – | – | – | – | – | – | – | – | – | – | – | – | – | – | – | – |
| CCOC(=O)C1=C(Nc2cccc(F)c2)CC(c2ccc(Cl)cc2)N(c2cccc(F)c2)C1c1ccc(Cl)cc1 (stereo not drawn) | 6.01 | 6.15 | 6.42 | 5.90 | 5.77 | – | – | – | – | – | – | – | – | – | – | – | – | – | – | – |
